Columns and labels:
293T cells [1] = experiment: Fluorescent detection of Fluc-mRNA (cell transfection efficiency of LNP formulations); format: cell-based; settings: for Relative light unit (RLU): LNP formulation containing 0.3 μg Fluc-mRNA, 96-well plate, 24 hours; for Multiples (YK-101): RLU of YK-101 / RLU of named substance; for Multiples (YK-107): RLU of YK-107 / RLU of named substance; for Multiples (YK-108): RLU of YK-108 / RLU of named substance; for Ratio relative to SM-102: RLU of named substance / RLU of SM-102; for difference from SM-102 in Fluc-mRNA fluorescence (GraphPad Prism analysis): statistical comparison with SM-102; for fluorescence absorption value, times that of HHMA: RLU of named substance / RLU of HHMA; for fluorescence absorption value, times that of Lipofectamine 3000: RLU of named substance / RLU of Lipofectamine 3000; for Fluc-mRNA expression signal intensity, times that of compound 21: RLU of named substance / RLU of compound 21; for fluorescence absorption value, times that of compound 23: RLU of named substance / RLU of compound 23
Method: (§1) Cell recovery and passage: 293T cells were recovered, cultured in a culture dish, and passaged to the required number of cells.
(§2) Seeding plate: The cells in the culture dish were digested and counted. Cells were spread in a 96-well plate at 10,000 cells per well and in a 12-well plate at 150,000 cells per well. Cells were cultured overnight until the cells adhered to the wall.
Cell recovery and passage: the method was the same as in Example 3.
Seeding plate: the method was the same as in Example 3.
An LNP formulation containing 0.3 μg of Fluc-mRNA (the carrier components of the LNP formulation were cationic lipid, neutral lipid, structured lipid and polymer-conjugated lipid with a molar ratio of 49:10:39.5:1.5, wherein the cationic lipid was listed in Table 1) was added to the cell culture medium of a 96-well plate, and further incubated for 24 hours. The corresponding reagent was added according to the instructions of the Gaussia Luciferase Assay Kit, and the fluorescence expression intensity of each well was detected by an IVIS fluorescence detection system. This test verified the transfection efficiencies of LNP formulations in cells, see Tables 3-6 for specific test results.

293T cells [2] = experiment: Cell survival rate determination (CCK-8); format: cell-based; settings: for Cell survival rate (%): LNP formulation containing 1.5 μg Fluc-mRNA, 24 hours, CCK-8, absorbance at 450 nm; for cell survival rate lower than that of YK-101: cell survival rate of YK-101 minus that of named substance; for cell survival rate lower than that of YK-107: cell survival rate of YK-107 minus that of named substance; for cell survival rate lower than that of YK-108: cell survival rate of YK-108 minus that of named substance
Method: as §1, §2
An LNP formulation containing 1.5 μg of Fluc-mRNA (the cater component of the LNP formulation were cationic lipid, neutral lipid, structured lipid and polymer-conjugated lipid with a molar ratio of 49: 10: 39.5: 1.5, wherein the cationic lipid was listed in Table 1) and the formulation of Lipofectamine 3000 were added to the cell culture medium of a 96-well plate, and further cultivated for 24 hours. 10 μL of CCK-8 solution was then added to each well, and the culture plate was incubated in an incubator for 1 hour. The absorbance at 450 nm was measured by a microplate reader.

[3] = Determination of particle size and polydispersity index (PDI) of lipid nanoparticles by dynamic light scattering; format: physicochemical; settings: LNP formulation of named cationic lipid/DSPC/cholesterol/DMG-PEG2000 49:10:39.5:1.5; for Particle size (nm): 90° scattering angle, 25° C
Method: The cationic lipids listed in Table 1 were dissolved in ethanol with DSPC (AVT (Shanghai) Pharmaceutical Technology Co., Ltd.), cholesterol (AVT (Shanghai) Pharmaceutical Technology Co., Ltd.) and DMG-PEG2000 according to a molar ratio of 49:10:39.5:1.5, respectively, to prepare lipid solution in ethanol. The lipid solution in ethanol was quickly added to citrate buffer (pH=4 to 5) by ethanol injection method, and vortexed for 30 s for later use. eGFP-mRNA (from Shanghai Biohub International Trade Co., Ltd) or Fluc-mRNA (from Shanghai Biohub International Trade Co., Ltd) was diluted in citrate buffer (pH=4 to 5) to give an aqueous mRNA solution. A certain volume of liposome solution and mRNA aqueous solution were used to prepare liposomes at a weight ratio of total lipids to mRNA of 15:1. The mixtures were sonicated at 25° C. for 15 min (with an ultrasonic frequency of 40 kHz and an ultrasonic power of 800 W). The resulting liposomes were diluted to 10 times volume with PBS, and then ultrafiltered with a 300 KDa ultrafiltration tube to remove ethanol. Then the volume was fixed to a certain volume with PBS to give an LNP formulation encapsulating eGFP-mRNA or Fluc-mRNA using cationic lipid/DSPC/cholesterol/DMG-PEG2000 (49:10:39.5:1.5 in molar percentage).
The particle size and polydispersity index (PDI) were determined by dynamic light scattering using Malvern laser particle size analyzer.
10 μL of the liposome solution was weighed, diluted to 1 mL with RNase-free deionized water, and added to the sample pool. Each sample was measured in triplicate. The measurement conditions were: 90° scattering angle, and 25° C.

BALB/C mice = experiment: In vivo imaging of Fluc-mRNA expression in mice delivered by LNP formulations
Method: The LNP formulation containing […] Fluc-mRNA was injected intramuscularly into female BALB/C mice aged 4-6 weeks old and weighed 17-19 g, and the mice were intraperitoneally injected with fluorescent imaging substrate at specific time points after administration (6h, 24 h, 48h and 7d), where the mice were allowed to move freely for 5 minutes, and then the average radiation intensity (corresponding to fluorescence expression intensity) of the protein expression of the mRNA carried by the LNP in the mice was detected by the IVIS Spectrum small animal in vivo imaging device. The test results are shown in Tables 11 to 14 and FIGS. 12 to 14.

Row | Compound | Relative light unit (RLU) (293T cells [1]) | Multiples (YK-101) (293T cells [1]) | Multiples (YK-107) (293T cells [1]) | Multiples (YK-108) (293T cells [1]) | Ratio relative to SM-102 (293T cells [1]) | difference from SM-102 in Fluc-mRNA fluorescence (GraphPad Prism analysis) (293T cells [1]) | Cell survival rate (%) (293T cells [2]) | cell survival rate lower than that of YK-101 (293T cells [2]) | cell survival rate lower than that of YK-107 (293T cells [2]) | cell survival rate lower than that of YK-108 (293T cells [2]) | PDI(%) [3] | Particle size (nm) [3] | fluorescence absorption value, times that of HHMA (293T cells [1]) | fluorescence absorption value, times that of Lipofectamine 3000 (293T cells [1]) | Fluc-mRNA expression signal intensity, times that of compound 21 (293T cells [1]) | fluorescence absorption value, times that of compound 23 (293T cells [1]) | other results
1 | CCCCCCCCCCOC(=O)CCCCCN(CCO)CCCCCC(=O)OCCC(CCCCCC)CCCCCC [YK-103, 3-hexylnonyl-6-((6-(decyloxy)-6-oxohexyl)(2-hydroxyethyl)amino)hexanoate] | 2312883 RLU | 8.79 | 9.67 | 10.66 | 1.51 | no significant difference | 45.25% | 44.87% | 45.20% | 44.61% | 21.5% | 179 nm | – | – | – | – | cell transfection activity, times that of YK-109 (293T cells [1]): 3.2 times
2 | CCCCCCCCCCOC(=O)CCCN(CCO)CCCCCCOC(=O)CC(CCCCCC)CCCCCC [YK-105] | 1593805 RLU | 12.76 | 14.03 | 15.47 | 1.04 | no significant difference | 78.58% | 11.54% | 11.87% | 11.28% | 18.6% | 109 nm | – | – | – | – | –
3 | CCCCCCCCCCOC(=O)CCCN(CCCCCC(=O)OCCC(CCCCCC)CCCCCC)C[C@@H](O)CO [YK-115] | 1427501 RLU | 14.25 | 15.66 | 17.28 | 0.93 | – | 59.07% | 31.05% | 31.38% | 30.79% | 21.8% | 167 nm | 0.70 times | 1.33 times | 1.03 times | 1.11 times | –
4 | CCCCCCCCCCOC(=O)CCCN(CCCCCC(=O)OCCC(CCCCCC)CCCCCC)C1CCCC1O (centres unmarked) [YK-120, 3-hexylnonyl 6-(4-(decyloxy)-4-oxobutyl)((2-hydroxycyclopentyl)amino)hexanoate] | 1403572 RLU | 14.49 | 15.93 | 17.57 | 0.91 | – | 73.43% | 16.69% | 17.02% | 16.43% | – | – | 0.69 times | 1.31 times | 1.01 times | 1.09 times | average radiation intensity of YK-101, times that of named substance (BALB/C mice; 6 h): 2.7 times; average radiation intensity of YK-107, times that of named substance (BALB/C mice; 6 h): 2.9 times; average radiation intensity of YK-108, times that of named substance (BALB/C mice; 6 h): 3.6 times; average radiation intensity of YK-101, times that of named substance (BALB/C mice; 24 h): 11.1 times; average radiation intensity of YK-107, times that of named substance (BALB/C mice; 24 h): 13.7 times; average radiation intensity of YK-108, times that of named substance (BALB/C mice; 24 h): 14.8 times; average radiation intensity of YK-101, times that of named substance (BALB/C mice; 48 h): 8.9 times; average radiation intensity of YK-107, times that of named substance (BALB/C mice; 48 h): 10.9 times; average radiation intensity of YK-108, times that of named substance (BALB/C mice; 48 h): 11.1 times; average radiation intensity of YK-101, times that of named substance (BALB/C mice; 7 d): 2.4 times; average radiation intensity of YK-107, times that of named substance (BALB/C mice; 7 d): 2.6 times; average radiation intensity of YK-108, times that of named substance (BALB/C mice; 7 d): 2.8 times; average radiation intensity, 6 h (BALB/C mice; LNP containing 10 pg Fluc-mRNA, intramuscular, female BALB/C mice, 6 h): 559000; average radiation intensity, 24 h (BALB/C mice; LNP containing 10 pg Fluc-mRNA, intramuscular, female BALB/C mice, 24 h): 94779; average radiation intensity, 48 h (BALB/C mice; LNP containing 10 pg Fluc-mRNA, intramuscular, female BALB/C mice, 48 h): 20832; average radiation intensity, 7 d (BALB/C mice; LNP containing 10 pg Fluc-mRNA, intramuscular, female BALB/C mice, 7 d): 5052
5 | CCCCCCCCCCOC(=O)CCCN(CCCCCC(=O)OCCC(CCCCCC)CCCCCC)CCOCCOCCO [YK-121, 3-hexylnonyl 6-(4-(decyloxy)-4-oxobutyl)(2-(2-(2-hydroxyethoxy)ethoxy-ethyl)amino)hexanoate] | 427603 RLU | – | 52.29 | – | 0.28 | significant difference | 73.11% | 17.01% | 17.34% | 16.75% | 25.1% | 192 nm | 0.21 times | 0.40 times | 0.31 times | 0.33 times | –

Reference: patent publication US20260008746A1, “CATIONIC LIPID COMPOUND WITH HIGH EFFICIENCY, LOW TOXICITY AND STABLE EXPRESSION, AND COMPOSITION COMPRISNG SAME” (HANGZHOU TIANLONG PHARMACEUTICAL CO., LTD, priority 2023, published 2026)
